Consider 2 molecules from US9334280B2, “Synthetic rigidin analogues as anticancer agents, salts, solvates and prodrugs thereof, and method of producing same” (New Mexico Technical Research Foundation, priority 2012, dated 2016).

Read-outs that look alike come from different tables or passages of the source.

Test [1] relates to MES-SA uterine sarcoma cells. The test is described as follows: MTT antiproliferative assay, MES-SA. The test is classed as cell-based. To be noted: Homo sapiens, Table 3, parental drug-responsive cell line, read-out: GI50 in vitro Values, MES-SA. The protocol: Human T-cell leukemia cell line Jurkat (ATCC TIB-152, E6-1 clone) was cultured in RPMI-1640 (Invitrogen) supplemented with 10% FBS (Invitrogen), 100 mg/L penicillin G, 100 mg/L streptomycin, 1.0 mM sodium pyruvate, 1.5 g/L sodium bicarbonate, and 4.5 g/L glucose (all from Sigma). Human cervical cancer cell line HeLa (ATCC S3) was cultured in DMEM (Invitrogen) supplemented with 10% FBS, 100 mg/L penicillin G, and 100 mg/L streptomycin. MCF-7 (human mammary carcinoma) cells were cultured in DMEM supplemented with 1.0 mM sodium pyruvate, 1% GlutaMax™-1 (Invitrogen), 100 μg/mL penicillin, 100 μg/mL streptomycin, and 10% FBS. Human uterine sarcoma MES-SA and MES-SA/Dx5 cells were cultured in RPMI-1640 medium supplemented with 10% FBS, 100 mg/L penicillin G and 100 mg/L streptomycin. All cells were incubated at 37° C. in a humidified atmosphere with 5% CO2. […]
To evaluate antiproliferative properties of the compounds of Formula I, mitochondrial dehydrogenase activities were measured using the MTT assay. […] Media was removed and the resulting formazan crystals were re-solubilized in 100 microL of DMSO and the optical density (OD) was measured using a Thermomax Molecular Device plate reader at a wavelength of 490 nm. […]
The cells of such tumors are referred to as multidrug resistant (MDR). Thus, we assessed the compounds of Formula I for antiproliferative activity in an MDR cancer cell line. […]

In another test the test system is U373 glioblastoma cells. The test is described as follows: MTT antiproliferative assay, U373. The class given is cell-based, human. To be noted: Homo sapiens, U373 MG; Table 2; 48 h, MTT; read-out: GI50 in vitro values, U373. The protocol: (§1) To evaluate antiproliferative properties of the compounds of Formula I, mitochondrial dehydrogenase activities were measured using the MTT assay. The cell lines were prepared by trypsinizing and seeding […] cells per well into microplates. All compounds were reconstituted in dimethyl sulfoxide (DMSO) at a concentration of either 100 mM or 25 mM prior to treatment. The cells were grown for 24 hrs before treatment at concentrations ranging from 0.004 to 100 microM and incubated for 48 hrs in 200 microL media. 20 microL of MTT reagent in serum free medium (5 mg/mL) was added to each well and incubated further for 2 hrs. Media was removed and the resulting formazan crystals were re-solubilized in 100 microL of DMSO and the optical density (OD) was measured using a Thermomax Molecular Device plate reader at a wavelength of 490 nm. The experiments were performed in quadruplicate and repeated at least twice for each compound per cell line. Cells treated with 0.1% DMSO were used as a negative control, while phenyl arsine oxide (PAO) was used as a positive killing control.
(§2) Human cancer cell lines were obtained from the American Type Culture Collection (ATCC, Manassas, Va., USA), the European Collection of Cell Culture (ECACC, Salisbury, UK) and the Deutsche Sammlung von Mikroorganismen and Zellkulturen (DSMZ, Braunschweig, Germany). Human cervical adenocarcinoma HeLa cells were cultured in DMEM supplemented with 10% fetal bovine serum (FBS). Human mammary carcinoma MCF-7 cells were cultured in RPMI supplemented with 10% FBS. The U87 and U373 cells were cultured in DMEM culture medium (Lonza code 12-136F, Vervier, Belgium), while the SKMEL-28 and A549 cells were cultured in RPMI culture medium (Lonza; code 12-115F) supplemented with 10% heat-inactivated FBS (Lonza, FBS South America code DE14-801F). […] All cell lines were cultured in T25 flasks, maintained and grown at 37° C., 95% humidity, 5% CO2.
(§3) To evaluate antiproliferative properties of the synthesized compounds, the MTT assay was used. The cell lines were assessed by trypsinizing each cell line and seeding 4×10^3 cells per well into 96-well plates. All compounds were dissolved in DMSO at a concentration of either 100 mM or 50 mM prior to cell treatment. The cells were grown for 24 h and then treated with compounds at concentrations ranging from 0.04 to 100 μM and incubated for 48 h in 200 μL media. 20 μL of MTT reagent in serum free medium (5 mg/mL) was added to each well and incubated further for 2 h. Media was removed, and the resulting formazan crystals were re-solubilized in 200 μL of DMSO. A490 was measured using a Thermomax Molecular Device plate reader. The experiments were performed in quadruplicate and repeated at least twice for each compound per cell line. […]

The test system of a further test is GEO colon cancer cells. The test is described as follows: MTT antiproliferative assay, GEO. The class given is cell-based. To be noted: Table 1A, 48 h, read-out: Concentration required to reduce the viability of cells by 50%, GEO. The protocol: as §1
The subject of a further test is HCT8 colon cancer cells. Briefly: MTT antiproliferative assay, HCT8. The test is classed as cell-based. To be noted: Homo sapiens, HCT-8, Table 1A, 48 h, read-out: Concentration required to reduce the viability of cells by 50%, HCT8. The protocol:
as §1

The test system of test [2] is MCF-7 mammary gland adenocarcinoma cells. The test is described as follows: MTT antiproliferative assay, MCF-7. The test is classed as cell-based. To be noted: Homo sapiens, MCF7, MTT, ± SD, read-out: GI50 in vitro Values, MCF-7. Summed up: (§4)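 Cells were seeded at 4×10^3 per well, grown 24 h, then treated at 0.04–100 μM for 48 h; HeLa in DMEM and MCF-7 in RPMI, each with 10% FBS. MTT for 2 h, formazan dissolved in DMSO, A490 read; quadruplicate, at least two repeats, 0.1% DMSO vehicle control and 1 μM phenyl arsine oxide as positive killing control.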

The next test deals with SW480 colon cancer cells. The test is described as follows: MTT antiproliferative assay, SW480. To be noted: Homo sapiens, Table 1A, 48 h, read-out: Concentration required to reduce the viability of cells by 50%, SW480. The test is classed as cell-based. The protocol:
as §1

The test system of test [3] is HeLa cervical adenocarcinoma cells. The test is described as follows: MTT antiproliferative assay, HeLa. The class given is cell-based. The conditions noted are these: Homo sapiens, MTT, ± SD, read-out: GI50 in vitro Values, HeLa. In outline: as §4
The subject of test [4] is A549 non-small-cell lung cancer cells. Briefly: MTT antiproliferative assay, A549. The class given is cell-based. To be noted: Homo sapiens. The protocol:
as §1, §2
(§5) To evaluate antiproliferative properties of the synthesized compounds, the MTT assay was used. The cell lines were assessed by trypsinizing each cell line and seeding 4×10^3 cells per well into 96-well plates. All compounds were dissolved in DMSO at a concentration of either 100 mM or 50 mM prior to cell treatment. The cells were grown for 24 h and then treated with compounds at concentrations ranging from 0.04 to 100 μM and incubated for 48 h in 200 μL media. 20 μL of MTT reagent in serum free medium (5 mg/mL) was added to each well and incubated further for 2 h. Media was removed, and the resulting formazan crystals were re-solubilized in 200 μL of DMSO. A490 was measured using a Thermomax Molecular Device plate reader. The experiments were performed in quadruplicate and repeated at least twice for each compound per cell line. Cells treated with 0.1% DMSO were used as a control, and 1 μM phenyl arsine oxide (PAO) was used as a positive killing control.

The test system of test [5] is Hs683 anaplastic oligodendroglioma cells. The test is described as follows: MTT antiproliferative assay, Hs683. The test is classed as cell-based. To be noted: Homo sapiens, Hs 683, Table 2, 48 h, read-out: GI50 in vitro values, Hs683. The protocol:
as §1

The subject of another test is SW620 colon cancer cells. The test is described as follows: MTT antiproliferative assay, SW620. The conditions noted are these: Homo sapiens, SW-620, Table 1A, 48 h, read-out: Concentration required to reduce the viability of cells by 50%, SW620. The class given is cell-based. The protocol:
as §1

The next test concerns B16F10 melanoma cells. Briefly: MTT antiproliferative assay, B16F10. The class given is cell-based. To be noted: Mus musculus, B16-F10, Table 2, 48 h, read-out: GI50 in vitro values, B16F10. The protocol:
as §1

Test [6] deals with MES-SA/Dx5 uterine sarcoma cells (overexpress p-gp). The test is described as follows: MTT antiproliferative assay, MDR MES-SA/Dx5. The class given is cell-based, human. The protocol: Human T-cell leukemia cell line Jurkat (ATCC TIB-152, E6-1 clone) was cultured in RPMI-1640 (Invitrogen) supplemented with 10% FBS (Invitrogen), 100 mg/L penicillin G, 100 mg/L streptomycin, 1.0 mM sodium pyruvate, 1.5 g/L sodium bicarbonate, and 4.5 g/L glucose (all from Sigma). Human cervical cancer cell line HeLa (ATCC S3) was cultured in DMEM (Invitrogen) supplemented with 10% FBS, 100 mg/L penicillin G, and 100 mg/L streptomycin. MCF-7 (human mammary carcinoma) cells were cultured in DMEM supplemented with 1.0 mM sodium pyruvate, 1% GlutaMax™-1 (Invitrogen), 100 μg/mL penicillin, 100 μg/mL streptomycin, and 10% FBS. Human uterine sarcoma MES-SA and MES-SA/Dx5 cells were cultured in RPMI-1640 medium supplemented with 10% FBS, 100 mg/L penicillin G and 100 mg/L streptomycin. All cells were incubated at 37° C. in a humidified atmosphere with 5% CO2. The other cell lines were maintained in a similar fashion as previously described.
as §1
The cells of such tumors are referred to as multidrug resistant (MDR). Thus, we assessed the compounds of Formula I for antiproliferative activity in an MDR cancer cell line. This was done using the uterine sarcoma cells, MES-SA/Dx5, which overexpress p-gp. The parental drug-responsive MES-SA cell line was used as control.

For the next test, the system named is SKMEL-28 melanoma cells. The test is described as follows: MTT antiproliferative assay, SKMEL-28. The test is classed as cell-based, human. To be noted: Homo sapiens, SK-MEL-28; Table 2; 48 h, MTT; read-out: GI50 in vitro values, SKMEL-28. The protocol:
as §1, §2, §3

Test [7] concerns HeLa, MCF-7, U-87 and A549 cells. The test is described as follows: MTT antiproliferative activity, statements for four-cell-line panel. The class given is cell-based, human. To be noted: MCF-7, U-87, A549, 48 h. The protocol: The antiproliferative effects of compounds 13 and 18-23 were studied in a more challenging cell line panel that, in addition to the previously utilized HeLa and MCF-7, contained in vitro models for cancers known to be associated with poor prognoses, such as the U-87 human glioblastoma and A549 human non-small-cell lung (NSCLC) carcinoma.
as §5

For the next test, the system named is U-87 glioblastoma cells. Briefly: MTT antiproliferative assay, U-87. The class given is cell-based. To be noted: Homo sapiens, Table 6, 48 h, ± SD, read-out: GI50 in vitro Values, U-87. The protocol:
as §2, §5

On to `O=C(c1ccccc1)c1[nH]c2[nH]cnc(=O)c2c1-c1ccccc1` [Rig35, 6-Benzoyl-5-phenyl-1H-pyrrolo[2,3-d]pyrimidin-4(7H)-one], for which the GI50 in test [1] is 30 ± 4 nM; in the test with U373 glioblastoma cells, < 10 nM; in [2] (Table 1, 48 h treatment) it was 40 ± 24 nM; in test [3] (Table 1, 48 h treatment), 35 ± 7 nM; in [4] (Table 2, 48 h, read-out: GI50 in vitro values, A549), 20 nM; in [5] it was 10 nM. Further, the GI50 is 10 nM in the test with B16F10 melanoma cells; 70 ± 4 nM in [6] (Homo sapiens, MES-SA/Dx5, Table 3, MDR cell line, read-out: GI50 in vitro Values, MES-SA/Dx5); < 10 nM with SKMEL-28 melanoma cells. The IC50 is 8 nM in the test on GEO colon cancer cells, < 1 nM in the test with HCT8 colon cancer cells, < 1 nM with SW480 colon cancer cells and < 1 nM with SW620 colon cancer cells. Moreover, the “variation in the sensitivities of the parental and MDR cell lines” value in test [6] (MES-SA/Dx5 vs MES-SA, in words) is given as “only a small variation”.

Turning to `Cc1nc(=O)c2c(-c3cccnc3)c(C(=O)c3ccccc3)[nH]c2[nH]1` [Compound 21, 6-Benzoyl-2-methyl-5-(pyridin-3-yl)-1H-pyrrolo[2,3-d]pyrimidin-4(7H)-one], the GI50 turned out to be 4700 ± 800 nM in [2] (Table 6, 48 h); 3100 ± 100 nM in [3] (Table 6, 48 h); 9230 ± 2130 nM in the test on U-87 glioblastoma cells; 12000 ± 1400 nM in test [4] (Table 6, 48 h, ± SD, read-out: GI50 in vitro Values, A549). Besides, the “antiproliferative potencies (in words)” value in test [7] is given as “single-digit micromolar potencies”.
